Data from article PMC4721142, “Randomized controlled studies on the efficacy of antiarthritic agents in inhibiting cartilage degeneration and pain associated with progression of osteoarthritis in the rat” (Arthritis Research & Therapy, 2016).
Where “and” joins values, the source holds several entries; their conditions need not be identical. Equal values may be shown once.

Experiments:
NF-κB = experiment: TNF-α-stimulated NF-κB dual luciferase reporter assay in HeLa cells; format: cell-based
Method in brief: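 HeLa cells transfected with NF-κB firefly luciferase and Renilla pRLuc-N3 plasmids (8:1), in triplicate; TNF-α stimulation with drug, luminescence read 5 h later by Dual-Glo. Firefly/Renilla ratio normalised to viable transfected cells, expressed as fold over cells without TNF-α or drug.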

MMT/MCLT rat model of OA = experiment: MMT/MCLT trial 1 histopathology (same doses); format: in vivo; parameters: key to Tibial cartilage degeneration score, 3-zone total: sum of three tibial zone scores (each on 5-point scale); key to Total joint score w/o femur / Total joint score / Total joint score without femur: sum: cartilage degeneration scores + mean osteophyte score; conditions: low or only dose
Source text: For MMT/MCLT rat knee joints, sections were cut in 200-μm steps; stained with toluidine blue (also with a right and left half per section); and similarly analyzed for cartilage degeneration, proteoglycan loss, collagen damage, and osteophyte formation. Results were averaged across the three sections for an overall semiquantitative score. Regional differences across the tibial plateau were taken into consideration by dividing each section into three zones delineated using an ocular micrometer (outside, middle, and inside). Scores were based on the percentage of area affected within the zone.
Cartilage degeneration in the tibia was scored on a 5-point scale as detailed in the Methods section of Additional file 1. The total extent of degeneration of the tibial plateau was measured (in micrometers) and included an analysis of cell loss, proteoglycan loss, and collagen damage. Significant cartilage degeneration reflecting any degeneration extending through more than 50 % of the cartilage thickness was also measured. Collagen damage across the medial tibial plateau (the most severely affected section of the two halves) was also quantified.
Osteophytes and femoral cartilage degeneration were analyzed as detailed in Additional file 1. Scoring of the osteophytes and categorization into small, medium, and large was performed using an ocular micrometer. The actual osteophyte measurement (tidemark to farthest distance point extending toward the synovium) was also recorded. The femoral cartilage degeneration score and the three-zone sum of the tibial cartilage degeneration scores (mean of three levels) were summed to create a total cartilage degeneration score. The mean osteophyte score for each joint was added to this value to create a total joint score. […]
Histopathology MMT/MCLT Model

COc1ccc(C=CC(=O)Nc2ccccc2C(=O)O)cc1OC [Tranilast, N-(3′,4′-dimethoxycinnamoyl)anthranilic acid]
Effective range against NFkB (NF-κB): None

CC1=C(CO)C(=O)O[C@@H]([C@@H](C)[C@H]2CC[C@H]3[C@@H]4C[C@H]5O[C@]56[C@@H](O)C=CC(=O)[C@]6(C)[C@H]4CC[C@]23C)C1 [Withaferin A]
Effective against NF κβ (p<0.05) (NF-κB): 2 to 17 µM | Bone score (MMT/MCLT rat model of OA; mean): 2.88 | Depth ratio any matrix change, mean (MMT/MCLT rat model of OA; mean): 0.38 | Depth ratio any matrix change, zone 2 (MMT/MCLT rat model of OA; mean): 0.18 | Femoral cartilage degeneration score (MMT/MCLT rat model of OA; mean): 1.83 and 1.83 ± 0.52 | Tibial cartilage degeneration score, 3-zone total (MMT/MCLT rat model of OA; mean): 6.04 | Tibial cartilage degeneration score, zone 1 (MMT/MCLT rat model of OA; mean): 4.13 | Tibial cartilage degeneration score, zone 2 (MMT/MCLT rat model of OA; mean): 1.88 | Tibial cartilage degeneration score, zone 3 (MMT/MCLT rat model of OA; mean): 0.04 | Tibial cartilage degeneration width, significant (MMT/MCLT rat model of OA; mean): 637.50 µm | Tibial cartilage degeneration width, total (MMT/MCLT rat model of OA; mean): 1262.50 µm | Tibial osteophyte measure (MMT/MCLT rat model of OA; mean): 515.42 µm | Tibial osteophyte score (MMT/MCLT rat model of OA; mean): 3.96 | Total joint score (MMT/MCLT rat model of OA; mean): 11.83 and 11.83 ± 0.61 | Total joint score w/o femur (MMT/MCLT rat model of OA; mean): 10.00 | % decrease, bone score (MMT/MCLT rat model of OA; vs saline group): 12% | % decrease, depth ratio mean (MMT/MCLT rat model of OA; vs saline group): -5% | % decrease, depth ratio zone 2 (MMT/MCLT rat model of OA; vs saline group): 0% | % decrease, femoral cartilage degeneration score (MMT/MCLT rat model of OA; vs saline group): 0% | % decrease, osteophyte measure (MMT/MCLT rat model of OA; vs saline group): 0% | % decrease, osteophyte score (MMT/MCLT rat model of OA; vs saline group): -1% | % decrease, significant degeneration width (MMT/MCLT rat model of OA; vs saline group): 12% | % decrease, tibial score 3-zone total (MMT/MCLT rat model of OA; vs saline group): 8% | % decrease, tibial score zone 1 (MMT/MCLT rat model of OA; vs saline group): 4% | % decrease, tibial score zone 2 (MMT/MCLT rat model of OA; vs saline group): 15% | % decrease, tibial score zone 3 (MMT/MCLT rat model of OA; vs saline group): 0% | % decrease, total degeneration width (MMT/MCLT rat model of OA; vs saline group): 4% | % decrease, total joint score (MMT/MCLT rat model of OA; vs saline group): 4% | % decrease, total joint score w/o femur (MMT/MCLT rat model of OA; vs saline group): 4%
